Reference: paper PMC12456999, “Sulfonyl Homoserine Lactones Are Tunable Probes to Inhibit the Quorum Sensing Receptor RhlR and Reduce Swarming Motility in Pseudomonas aeruginosa” (ACS Infectious Diseases, 2025)
Where two headings read alike, the source gives them in different places.

Columns and labels:
[1] = biological target: T1, RhlR (Pseudomonas aeruginosa, UniProt P54292); assay: E. coli (JLD271) RhlR reporter antagonism assay, in competition with BHL; format: cell-based; conditions: for max. RhlR inhibition (%): BHL at 10 μM set to 0%, media control set to 100%
T1 construct: expressed in transfected cells; host or cells: E. coli JLD271 (K-12 ΔlacX74 sdiA271::Cam) carrying pJN105-R2 (RhlR expression) and pSC11-rhlI (rhlI'-lacZ reporter)
T1 sequence (P54292 whole entry): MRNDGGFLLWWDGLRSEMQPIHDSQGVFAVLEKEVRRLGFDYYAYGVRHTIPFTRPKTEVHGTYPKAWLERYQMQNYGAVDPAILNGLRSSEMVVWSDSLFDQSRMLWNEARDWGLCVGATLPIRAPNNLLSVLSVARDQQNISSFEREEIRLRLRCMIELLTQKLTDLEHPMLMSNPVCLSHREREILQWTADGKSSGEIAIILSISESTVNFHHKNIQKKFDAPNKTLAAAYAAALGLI
Description: To start, the sulfonyl HLs were evaluated for their ability to antagonize RhlR using a previously described E. coli strain (JLD271) harboring a RhlR expression plasmid and a rhlI reporter plasmid. This E. coli reporter produces RhlR, and protein activity in the presence of an added small molecule can be measured via the production of β-galactosidase as quantified via luminescence (see Methods). Compounds were screened in competition against RhlR’s native ligand, BHL (at its EC50 value in this strain, 10 μM), over a range of concentrations to generate antagonism dose–response curves (see Supporting Information) and calculate IC50 values (listed in Table ). A small set of compounds was also screened for RhlR agonism in the E. coli reporter; the agonism assay format was identical to the antagonism assay, except no BHL was added.
RhlR activity in E. coli strain JLD271 (ΔsdiA) was measured via a β-galactosidase reporter (rhI-lacZ) using the Promega Beta-Glo Assay System as previously described. RhlR activity in P. aeruginosa PA14 (ΔrhlIΔlasI) was measured via a GFP reporter (rhlA-gfp). […] See Supporting Information for both reporter protocols.
Supporting Information — Aguirre-Figueroa et al.
E. coli and P. aeruginosa RhlR reporter assay protocols.
E. coli RhlR reporter assay. RhlR activity in E. coli strain JLD271 (ΔsdiA) was measured via a β-galactosidase reporter using the Promega Beta-Glo® Assay System as previously described.10 A schematic of the reporter plasmids and assay protocol is shown in Scheme S1. Briefly, a single colony of E. coli JLD271 harboring the RhlR expression plasmid pJN105-R and the rhlI-lacZ transcriptional fusion reporter pSC11-R (Table S1) was grown in LB medium with 100 μg/mL ampicillin and 10 μg/mL gentamicin overnight (~16 h). The culture was diluted 1:10 in fresh LB medium and grown to an OD600 = 0.25 (0.23–0.28) (~0.5 h). Arabinose was added to a final concentration of 4 mg/mL to induce the expression of pJN105-R. Aliquots (2 μL) of compound DMSO stock solution or serial dilution were added to the inner wells (i.e., non-periphery rows) of a 96-well microtiter plate. To six inner wells, DMSO alone (vehicle) was added as a negative control. For agonism assays, BHL was added to six inner wells as a positive control (to achieve 1 mM). For antagonism assays, BHL was added to six inner wells as a positive control and to all of the other sample wells except for the vehicle control wells (to achieve 10 μM ). Subculture (198 μL) was then dispensed into each inner well. To the outer (periphery) wells, 200 μL of water were added to maintain humidity during incubation. Plates were then incubated for 4 h (shaking) at 37 °C.
Scheme S1. Schematic of E. coli reporter plasmids and assay. (A) Representation of plasmids used in the heterologous reporter system. (B) General reporter assay workflow. BioRender used in […]
After the incubation period, the OD600 of each well was measured using a plate reader. Cell dilution plates were prepared by transferring 10 μL from the incubated culture plate wells to a fresh 96-well plate and adding 90 μL of 18 MΩ water to each well. Next, 10 μL aliquots of diluted Beta-Glo® reagent (1:2 with 18 MΩ water) were added to each well of a white 384-well microtiter plate, followed by 10 μL of culture from each well of the dilution plate. The 384-well plate was incubated (without shaking; i.e., static) for 30 min at 30 °C. After incubation, luminescence of each well was measured using a plate reader. To determine levels of RhlR activity, raw luminescence was divided by OD600 to correct for growth variation and then normalized to the negative (0%) and positive (100%) control wells.
Dose-response reporter assay data for compounds in the E. coli RhlR reporter.
Dose-response curves for RhlR antagonism by compounds against 10 μM BHL using the E. coli JLD271 RhlR reporter are provided below. Compound names are indicated on the x-axis of each plot.
All assays performed in triplicate as at least three separate biological replicates. […]

[2] = test system: P. aeruginosa PAO1; assay: Swarming motility assay; format: cell-based, Pseudomonas aeruginosa; conditions: PAO1 + DMSO = 100%, PAO1 ΔrhlR + vehicle = 0%; for reduction in swarming activity relative to the controls: compound at 500 μM
Description: We next evaluated the ability of the four sulfonyl HLs 39, 43, 59, and 75 capable of inhibiting RhlR in the P. aeruginosa reporter to reduce swarming motility in a wild-type P. aeruginosa strain (PAO1). Swarming is a rapid, group-coordinated movement of a bacterial population across a semisolid surface, linked to increased expression of virulence factors and increased antibiotic resistance and regulated in P. aeruginosa, at least in part, by the Rhl system. The results of these phenotypic assays are shown in Figure (see Methods for protocol). The swarming ability of PAO1 in the presence of vehicle (DMSO) served as a positive control (set to 100%). As a key negative control, we examined the swarming ability of a PAO1 ΔrhlR mutant in the presence of the vehicle and observed […] relative to the positive control (set to 0%).
5 Swarming motility assay data in P. aeruginosa. […] Area of the colony after 42 h incubation was used to calculate swarming activity (see Methods). Positive control = PAO1 treated with vehicle (DMSO, 100%). Negative control = PAO1 ΔrhlR treated with vehicle (0%). Error bars = standard deviation of the means of triplicate samples. (B) Representative images of P. aeruginosa swarming on agar plates used to generate data in panel A.
The motility assay was based in part on a previously reported procedure. P. aeruginosa PAO1 was grown overnight with 500 or 250 μM compound, or vehicle (DMSO), at 37 °C and normalized to OD600 = 0.4. Cells were washed with sterile water twice and resuspended with 500 (39, 43, and 59) or 250 (75) μM fresh compound or vehicle (DMSO), in M8 minimal medium. Cells (5 μL) were spotted in the center of agar plates (100 mm diameter) generated from M8 minimal medium + 1 mM MgSO4 + 0.2% glucose + 0.5% Casamino acids + 0.5% agar. Plates were covered and the cells were grown for 24–48 h at 37 °C prior to imaging (using an iPhone 14 camera). Photographs were analyzed using ImageJ to calculate the area of the swarm and normalized to the area of (P. aeruginosa PAO1 + vehicle) – (P. aeruginosa PDO111 (ΔrhlR) + vehicle).

[3] = IC50, E. coli JLD271 RhlR reporter, against 10 μM BHL

| SMILES | fold more potent than 4-bromo BSHL (35) ([1]; E. coli RhlR reporter IC50) | max. RhlR inhibition (%) ([1]; E. coli RhlR reporter) | IC50 [1, 3] | reduction in swarming activity relative to the controls [2] | potency gain ([1]; 33 vs 16, 43 vs 24, 86 vs 45, E. coli RhlR reporter IC50) | fold lower IC50 value than 3-Cl BSHL (28) ([1]; E. coli RhlR reporter IC50) | IC50 ([1]; E. coli JLD271 RhlR reporter, against 10 μM BHL) | IC50 ([1]; read-out: inhibitory potency on average (74, 75 and 18), average over the C4, C5 and C6 ASHLs, E. coli RhlR reporter) | reduction in swarming ([2]; compound at 250 μM) |
| --- | --- | --- | --- | --- | --- | --- | --- | --- | --- |
| O=C1OCC[C@@H]1NS(=O)(=O)c1cccc(Br)c1 [Compound 39, 3-bromo BSHL] | ~6 fold | 90% | 29.9 µM | 60% |  |  |  |  |  |
| O=C1OCC[C@@H]1NS(=O)(=O)c1ccc(Cl)c(Cl)c1 [Compound 43, 3,4-di-Cl BSHL] |  | 99% | 54.3 µM | 60% | ≤ 40 fold | over 2 fold |  |  |  |
| O=C1OCC[C@@H]1NS(=O)(=O)c1ccc(F)c(F)c1 [Compound 59, 3,4-di-F BSHL] |  | 87% | 87.8 µM | 60% |  |  |  |  |  |
| CCCCCS(=O)(=O)N[C@H]1CCOC1=O [Compound 75, C5 ASHL] |  | 84% |  |  |  |  | 20.6 µM | ~28 µM | 30% |
